Test results published in patent US20240279240A1, “HETEROCYCLIC DERIVATIVES AS JANUS KINASE INHIBITORS” (CHIESI FARMACEUTICI S.P.A., priority 2021, published 2024).

Assays:
TYK2 = TYK2 (Homo sapiens, UniProt P29597); assay: Biochemical potency on Tyk2, TR-FRET LANCE Ultra kinase assay (examples 1-99); details: ATP at Km (12 μM), read-out: Tyk2 inhibitory activity (pIC50 class) (converted)
Method: (§1) The objective of this study was to assess the capability of compounds to inhibit all 4 JAK isoforms activity in a cell-free environment. Assay for JAK 1, JAK 2, JAK 3 and TYK2 were performed by Time-resolved fluorescence resonance energy transfer (TR-FRET) technology. It consists in the interaction of two labelled binding partners detected by the energy transfer from an excited donor to an acceptor dye and measurement of light emission by the acceptor dye. LANCE Ultra kinase assay was used. In presence of JAK 1, JAK 2, JAK 3 and TYK2 kinases and ATP (corresponding to Km), the ULight peptide substrate (LANCE Ulight-JAK-1 (Tyr1023) Peptide, Perkin Elmer, TRF0121) is phosphorylated. It is then captured by Eu-anti-phospho-substrate antibody (LANCE Eu-W1024 Anti-phosphotyrosine (PT66), Perkin Elmer, AD0069), which bring the Eu-chelate donor and ULight acceptor dyes into close proximity. Upon excitation at 320 nm, the Eu-chelate transfers its energy to the ULight dye, resulting in a fluorescent light emission at 665 nm.
(§2) Serial dilutions of compounds in pure DMSO are prepared from 10 mM DMSO stock solutions. Compounds were tested in 384-well plate for 11 consecutive 5-fold dilutions starting from 20 μM highest concentration (20 μM-[…]). 200 nL of compound were transferred from mother plate to test plate by using Mosquito (TTP labtech). Assay was performed in 384-well Perkin Elmer test plate in 20 μL assay volume (kinase reaction) and 40 μL total volume (stopping reagent and antibody detection reagents). In 10 μL of substrate solution (peptide+ATP) 30/50/20/10 nM of peptide and 20/0.7/0.2/12 μM of ATP were added for JAK 1, JAK 2, JAK 3 and TYK2 respectively. 10 μL of enzyme solution was added to kinase reaction at these concentrations: 0.15/0.083/0.025/0.144 ng/μL of JAK 1, JAK 2, JAK 3 and TYK2 respectively. After shaking and 1.5 h of incubation at r.t., 20 μL of Stop (10 μL EDTA) and Detection mixture (10 μL Europium-anti-phospho antibody, final: 0.5 nM) were added. Reading was performed after 1 h of incubation on a EnVision 2104 reader (Perkin Elmer).
(§3) Calculation of IC50 data, curves and QC analysis was performed by using Excel tool and GraphPadPrism software, v9. Briefly, individual concentration-effect curves are generated by plotting the logarithm of the tested concentration of tested compounds (X) vs. corresponding percent inhibition values (Y) using least squares (ordinary) fit. Best fit IC50 values are calculated using Log(inhibitor) vs. normalized response—Variable slope equation, where Y=100/(1+10^((Log IC50−X)*HillSlope)). QC criteria parameters (Z′, S:B, R2, HillSlope) were checked for every IC50 curve. Calculation of IC50 data, curves and QC analysis were made using Excel tools and GraphPadPrism software. QC criteria parameters: Z′≥0.5, Hill Slope range 0.5 to 5, S:B>2.

JAK 2 = JAK 2 (Homo sapiens, UniProt O60674); assay: Biochemical potency on JAK2, TR-FRET LANCE Ultra kinase assay (examples 1-99); details: ATP at Km (0.7 μM), read-out: JAK2 inhibitory activity (pIC50 class) (converted)
Method: as §1, §2, §3

JAK 3 = target: T1, JAK 3 (Homo sapiens, UniProt P52333); assay: Biochemical potency on JAK3, TR-FRET LANCE Ultra kinase assay (examples 1-99); details: ATP at Km (0.2 μM), read-out: JAK3 inhibitory activity (pIC50 class) (converted)
T1 sequence (P52333 1-1124): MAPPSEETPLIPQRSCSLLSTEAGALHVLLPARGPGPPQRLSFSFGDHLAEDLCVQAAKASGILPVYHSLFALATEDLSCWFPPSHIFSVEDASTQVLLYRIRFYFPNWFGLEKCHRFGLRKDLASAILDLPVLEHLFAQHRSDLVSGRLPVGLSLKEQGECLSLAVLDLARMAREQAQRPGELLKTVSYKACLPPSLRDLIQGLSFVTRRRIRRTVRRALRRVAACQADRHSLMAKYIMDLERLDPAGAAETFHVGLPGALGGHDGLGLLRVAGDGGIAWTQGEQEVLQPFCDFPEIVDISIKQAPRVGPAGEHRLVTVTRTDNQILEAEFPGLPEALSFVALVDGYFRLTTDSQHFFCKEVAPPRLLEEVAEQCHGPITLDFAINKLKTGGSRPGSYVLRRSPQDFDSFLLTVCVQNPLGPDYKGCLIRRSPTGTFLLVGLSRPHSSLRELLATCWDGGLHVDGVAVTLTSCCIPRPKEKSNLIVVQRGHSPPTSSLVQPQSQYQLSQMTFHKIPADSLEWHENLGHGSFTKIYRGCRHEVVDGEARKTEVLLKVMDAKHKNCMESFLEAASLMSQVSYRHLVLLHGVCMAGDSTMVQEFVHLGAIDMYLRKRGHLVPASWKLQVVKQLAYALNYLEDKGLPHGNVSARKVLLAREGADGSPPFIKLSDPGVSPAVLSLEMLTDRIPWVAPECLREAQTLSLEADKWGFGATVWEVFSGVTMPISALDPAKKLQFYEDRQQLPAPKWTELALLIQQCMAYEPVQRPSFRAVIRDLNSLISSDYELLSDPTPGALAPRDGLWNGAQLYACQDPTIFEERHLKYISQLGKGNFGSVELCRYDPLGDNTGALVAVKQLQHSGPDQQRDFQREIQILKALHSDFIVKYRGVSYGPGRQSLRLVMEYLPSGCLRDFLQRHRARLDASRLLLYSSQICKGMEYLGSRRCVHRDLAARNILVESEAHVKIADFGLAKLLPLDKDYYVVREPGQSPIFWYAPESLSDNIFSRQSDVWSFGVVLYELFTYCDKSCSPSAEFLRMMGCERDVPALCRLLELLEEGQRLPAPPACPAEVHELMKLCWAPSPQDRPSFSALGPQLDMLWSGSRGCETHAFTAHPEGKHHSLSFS
Method: as §1, §2, §3

JAK 1 = JAK 1 (Homo sapiens, UniProt P23458); assay: Biochemical potency on JAK1, TR-FRET LANCE Ultra kinase assay (examples 1-99); details: ATP at Km (20 μM), read-out: JAK1 inhibitory activity (pIC50 class) (converted)
Method: as §1, §2, §3

JAK 1, sequence (P23458 whole entry): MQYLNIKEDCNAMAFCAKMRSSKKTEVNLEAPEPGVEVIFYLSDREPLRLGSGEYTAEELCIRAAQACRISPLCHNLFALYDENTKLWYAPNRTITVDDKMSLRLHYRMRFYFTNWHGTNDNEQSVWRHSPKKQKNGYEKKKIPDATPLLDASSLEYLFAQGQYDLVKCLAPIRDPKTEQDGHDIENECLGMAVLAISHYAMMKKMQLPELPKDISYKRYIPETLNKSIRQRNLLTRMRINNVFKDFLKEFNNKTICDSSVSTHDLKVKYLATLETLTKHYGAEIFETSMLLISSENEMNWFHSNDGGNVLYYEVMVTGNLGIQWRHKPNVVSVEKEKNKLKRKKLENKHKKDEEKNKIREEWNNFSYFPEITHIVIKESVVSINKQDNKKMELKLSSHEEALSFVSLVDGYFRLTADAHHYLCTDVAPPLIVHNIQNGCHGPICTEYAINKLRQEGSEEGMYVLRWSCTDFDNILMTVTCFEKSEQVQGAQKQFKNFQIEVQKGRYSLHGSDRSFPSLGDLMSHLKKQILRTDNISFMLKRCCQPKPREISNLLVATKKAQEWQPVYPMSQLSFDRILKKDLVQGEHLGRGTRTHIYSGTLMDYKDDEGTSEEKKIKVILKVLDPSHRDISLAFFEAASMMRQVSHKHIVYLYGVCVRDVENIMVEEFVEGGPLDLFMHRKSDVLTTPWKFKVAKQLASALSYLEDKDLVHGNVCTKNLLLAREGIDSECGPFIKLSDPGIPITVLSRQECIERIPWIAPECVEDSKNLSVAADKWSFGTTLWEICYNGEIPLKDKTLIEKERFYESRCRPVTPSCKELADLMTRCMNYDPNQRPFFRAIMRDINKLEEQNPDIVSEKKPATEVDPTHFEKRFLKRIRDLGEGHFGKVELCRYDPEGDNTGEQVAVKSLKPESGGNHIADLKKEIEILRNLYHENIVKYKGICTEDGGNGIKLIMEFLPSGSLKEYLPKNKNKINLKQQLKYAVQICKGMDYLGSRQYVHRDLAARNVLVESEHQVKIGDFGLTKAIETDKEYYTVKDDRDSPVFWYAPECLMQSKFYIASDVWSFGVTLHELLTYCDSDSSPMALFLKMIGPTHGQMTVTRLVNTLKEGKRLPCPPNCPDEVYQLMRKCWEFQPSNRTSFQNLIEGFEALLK
TYK2, sequence (P29597 whole entry, canonical isoform): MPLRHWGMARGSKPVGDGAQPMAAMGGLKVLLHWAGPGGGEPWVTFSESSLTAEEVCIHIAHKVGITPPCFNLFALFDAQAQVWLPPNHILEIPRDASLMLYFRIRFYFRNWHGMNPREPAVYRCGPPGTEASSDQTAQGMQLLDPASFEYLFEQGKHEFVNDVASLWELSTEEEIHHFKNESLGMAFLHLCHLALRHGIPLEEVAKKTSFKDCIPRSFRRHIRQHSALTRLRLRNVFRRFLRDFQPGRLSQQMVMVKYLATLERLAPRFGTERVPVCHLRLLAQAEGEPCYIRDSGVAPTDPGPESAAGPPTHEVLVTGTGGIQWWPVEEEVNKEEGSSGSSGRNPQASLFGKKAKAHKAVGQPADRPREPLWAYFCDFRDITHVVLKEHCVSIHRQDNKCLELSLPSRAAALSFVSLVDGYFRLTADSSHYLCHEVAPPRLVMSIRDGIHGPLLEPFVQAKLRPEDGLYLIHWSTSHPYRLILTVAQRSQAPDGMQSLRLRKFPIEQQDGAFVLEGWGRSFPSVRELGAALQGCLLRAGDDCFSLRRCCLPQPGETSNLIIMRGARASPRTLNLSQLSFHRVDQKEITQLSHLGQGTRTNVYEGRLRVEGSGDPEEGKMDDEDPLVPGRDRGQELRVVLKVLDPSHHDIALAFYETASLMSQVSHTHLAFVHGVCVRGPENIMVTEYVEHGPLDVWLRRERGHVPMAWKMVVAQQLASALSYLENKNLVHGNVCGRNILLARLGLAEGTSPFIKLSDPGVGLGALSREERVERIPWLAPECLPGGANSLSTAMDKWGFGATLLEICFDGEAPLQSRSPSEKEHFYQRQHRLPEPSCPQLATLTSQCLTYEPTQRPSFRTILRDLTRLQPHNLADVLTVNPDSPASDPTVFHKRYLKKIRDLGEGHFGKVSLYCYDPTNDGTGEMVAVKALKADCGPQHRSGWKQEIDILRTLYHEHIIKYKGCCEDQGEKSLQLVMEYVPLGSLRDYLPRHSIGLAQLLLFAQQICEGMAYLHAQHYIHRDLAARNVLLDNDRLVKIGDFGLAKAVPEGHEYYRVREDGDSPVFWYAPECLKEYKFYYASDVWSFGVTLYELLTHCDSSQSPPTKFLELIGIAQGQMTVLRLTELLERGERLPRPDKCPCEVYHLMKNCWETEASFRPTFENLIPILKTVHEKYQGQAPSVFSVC
JAK 2, sequence (O60674 whole entry): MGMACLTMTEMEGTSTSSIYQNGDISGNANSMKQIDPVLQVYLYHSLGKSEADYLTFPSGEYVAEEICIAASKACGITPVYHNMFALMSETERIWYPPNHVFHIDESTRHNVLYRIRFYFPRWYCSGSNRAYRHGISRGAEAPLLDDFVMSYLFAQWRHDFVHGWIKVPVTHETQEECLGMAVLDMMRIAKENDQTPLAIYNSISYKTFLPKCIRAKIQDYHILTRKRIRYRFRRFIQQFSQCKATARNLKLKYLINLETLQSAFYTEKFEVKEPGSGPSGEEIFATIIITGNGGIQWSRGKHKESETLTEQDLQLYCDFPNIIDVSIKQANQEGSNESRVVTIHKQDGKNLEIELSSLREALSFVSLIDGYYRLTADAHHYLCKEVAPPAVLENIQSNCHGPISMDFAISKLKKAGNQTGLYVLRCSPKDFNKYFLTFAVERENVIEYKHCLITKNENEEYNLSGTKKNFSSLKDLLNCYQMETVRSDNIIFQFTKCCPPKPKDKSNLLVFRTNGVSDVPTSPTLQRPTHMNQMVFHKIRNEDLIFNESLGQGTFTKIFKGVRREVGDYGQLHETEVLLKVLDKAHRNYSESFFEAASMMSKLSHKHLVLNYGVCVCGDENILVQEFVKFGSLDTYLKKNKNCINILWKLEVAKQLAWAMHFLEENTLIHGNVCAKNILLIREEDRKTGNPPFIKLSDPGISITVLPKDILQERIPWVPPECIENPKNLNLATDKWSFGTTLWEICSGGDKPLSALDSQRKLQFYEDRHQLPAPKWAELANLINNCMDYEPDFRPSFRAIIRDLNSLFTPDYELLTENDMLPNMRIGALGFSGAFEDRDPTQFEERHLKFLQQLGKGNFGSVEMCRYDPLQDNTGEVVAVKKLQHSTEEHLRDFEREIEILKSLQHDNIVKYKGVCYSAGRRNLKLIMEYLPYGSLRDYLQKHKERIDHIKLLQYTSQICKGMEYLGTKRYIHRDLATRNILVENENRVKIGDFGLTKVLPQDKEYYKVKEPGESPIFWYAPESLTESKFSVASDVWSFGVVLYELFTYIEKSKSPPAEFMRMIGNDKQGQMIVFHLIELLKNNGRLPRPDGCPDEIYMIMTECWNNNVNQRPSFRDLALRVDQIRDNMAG

Work on `COc1cc(O)c(F)cc1-n1nc(C)c2cnc(-c3cnn4cccnc34)cc21` [Example 58, 2-fluoro-5-methoxy-4-(3-methyl-6-(pyrazolo[1,5-a]pyrimidin-3-yl)-1H-pyrazolo[4,3-c]pyridin-1-yl)phenol] yielded an IC50 (TYK2) of 5.01 to 50.1 nM, an IC50 (JAK 2) of no more than 5.01 nM and an IC50 (JAK 3) of no more than 5.01 nM. It also gave an IC50 (JAK 1) of no more than 5.01 nM.

`COc1ccc(Cl)cc1-n1nc(C(=O)N[C@H]2C[C@H](N3CCOCC3)C2)c2cnc(-c3cnn4cccnc34)cc21` [Example 79, 1-(5-chloro-2-methoxyphenyl)-N-((1r,3r)-3-morpholinocyclobutyl)-6-(pyrazolo[1,5-a]pyrimidin-3-yl)-1H-pyrazolo[4,3-c]pyridine-3-carboxamide] gave an IC50 (TYK2) greater than 50.1 nM, an IC50 (JAK 2) of 5.01 to 50.1 nM and an IC50 (JAK 3) of 5.01 to 50.1 nM. The IC50 (JAK 1) was 5.01 to 50.1 nM.

`Cc1nn(-c2cc(S(C)(=O)=O)ccc2OC(F)F)c2cc(Nc3ncc[nH]c3=O)ncc12` [Example 94, 3-((1-(2-(difluoromethoxy)-5-(methylsulfonyl)phenyl)-3-methyl-1H-pyrazolo[4,3-c]pyridin-6-yl)amino)pyrazin-2(1H)-one] gave an IC50 (TYK2) of 5.01 to 50.1 nM, an IC50 (JAK 2) of no more than 5.01 nM and an IC50 (JAK 3) of no more than 5.01 nM. It also gave an IC50 (JAK 1) of no more than 5.01 nM.

For `COc1ccc(F)cc1-n1nc(C)c2cnc(-c3cnn4cccnc34)cc21` [Example 1, 1-(5-fluoro-2-methoxyphenyl)-3-methyl-6-(pyrazolo[1,5-a]pyrimidin-3-yl)-1H-pyrazolo[4,3-c]pyridine], the IC50 (TYK2) was 5.01 to 50.1 nM, the IC50 (JAK 2) was no more than 5.01 nM and the IC50 (JAK 3) was 5.01 to 50.1 nM. The IC50 (JAK 1) was 5.01 to 50.1 nM.

`Cc1nn(-c2cc(Cl)ccc2OC2CC2)c2cc(-c3cnn4cccnc34)ncc12` [Example 7, 1-(5-chloro-2-cyclopropoxyphenyl)-3-methyl-6-(pyrazolo[1,5-a]pyrimidin-3-yl)-1H-pyrazolo[4,3-c]pyridine] showed an IC50 (TYK2) of 5.01 to 50.1 nM, an IC50 (JAK 2) of no more than 5.01 nM and an IC50 (JAK 3) of no more than 5.01 nM. It also gave an IC50 (JAK 1) of 5.01 to 50.1 nM.

`CSc1ccc(OC(F)F)c(-n2nc(C(=O)NCCCN(C)C)c3cnc(-c4cnn5cccnc45)cc32)c1` [Example 37, 1-(2-(difluoromethoxy)-5-(methylthio)phenyl)-N-(3-(dimethylamino)propyl)-6-(pyrazolo[1,5-a]pyrimidin-3-yl)-1H-pyrazolo[4,3-c]pyridine-3-carboxamide] gave an IC50 (TYK2) of 5.01 to 50.1 nM, an IC50 (JAK 2) of no more than 5.01 nM and an IC50 (JAK 3) of no more than 5.01 nM. The IC50 (JAK 1) was no more than 5.01 nM.

For `Cc1nn(-c2cc(Cl)ccc2SC(F)F)c2cc(-c3cnn4cccnc34)ncc12` [Example 6, 1-(5-chloro-2-((difluoromethyl)thio)phenyl)-3-methyl-6-(pyrazolo[1,5-a]pyrimidin-3-yl)-1H-pyrazolo[4,3-c]pyridine], the IC50 (TYK2) was 5.01 to 50.1 nM, the IC50 (JAK 2) was 5.01 to 50.1 nM and the IC50 (JAK 3) was no more than 5.01 nM. For the same molecule, the IC50 (JAK 1) was 5.01 to 50.1 nM.

Molecule `Cc1nn(-c2cc(SC3CCOCC3)ccc2OC(F)F)c2cc(-c3cnn4cccnc34)ncc12` [Example 72, 1-(2-(difluoromethoxy)-5-((tetrahydro-2H-pyran-4-yl)thio)phenyl)-3-methyl-6-(pyrazolo[1,5-a]pyrimidin-3-yl)-1H-pyrazolo[4,3-c]pyridine] has an IC50 (TYK2) greater than 50.1 nM, an IC50 (JAK 2) of 5.01 to 50.1 nM and an IC50 (JAK 3) of no more than 5.01 nM. It also gave an IC50 (JAK 1) of 5.01 to 50.1 nM.

Work on `Cc1ccc(OC(F)F)c(-n2nc(C)c3cnc(-c4cnn5cccnc45)cc32)c1` [Example 65, 1-(2-(difluoromethoxy)-5-methylphenyl)-3-methyl-6-(pyrazolo[1,5-a]pyrimidin-3-yl)-1H-pyrazolo[4,3-c]pyridine] yielded an IC50 (TYK2) of 5.01 to 50.1 nM, an IC50 (JAK 2) of 5.01 to 50.1 nM and an IC50 (JAK 3) of no more than 5.01 nM. For the same molecule, the IC50 (JAK 1) was 5.01 to 50.1 nM.

For `COc1cc(O)c(C)cc1-n1nc(C)c2cnc(-c3cnn4cccnc34)cc21` [Example 60, 5-methoxy-2-methyl-4-(3-methyl-6-(pyrazolo[1,5-a]pyrimidin-3-yl)-1H-pyrazolo[4,3-c]pyridin-1-yl)phenol], the IC50 (TYK2) was 5.01 to 50.1 nM, the IC50 (JAK 2) was no more than 5.01 nM and the IC50 (JAK 3) was no more than 5.01 nM. The IC50 (JAK 1) was no more than 5.01 nM.
